Results: patent publication US12365696B2, “Small-molecule focal adhesion kinase (FAK) inhibitors” (DANA-FARBER CANCER INSTITUTE, INC., priority 2019, dated 2025)

Experiments:
ABL2 = ABL2 (Homo sapiens (Human), UniProt P42684); assay: KINOMEscan; type: binding; conditions: ABL2, 10000 nM; read-out: Percent Control
GSK3B = GSK3B (Homo sapiens (Human), UniProt P49841); assay: KINOMEscan; type: binding; conditions: 10000 nM, read-out: Percent Control
ACVR2B = ACVR2B (Homo sapiens (Human), UniProt Q13705); assay: KINOMEscan; type: binding; conditions: 10000 nM, read-out: Percent Control
MDA-MB-231 cells = assay: 2D-adherent monolayer cell viability (Cell Titer-Glo), 120 hrs; type: cell-based; conditions: Homo sapiens
Experimental: For 2D-adherent monolayer experiments, MDA-MB-231 cells were plated in 384-well format and allowed to adhere overnight. Cells were treated with indicated molecules from compound stock plates using a JANUS® Workstation pin tool for 120 hrs. To measure cell viability, Cell Titer-Glo® was added to wells for 15 minutes at room temperature and luminescence was measured on an EnVision™ 2104 Multilabel Plate Reader.
Inventive compound treatment (0.00063-20 μM) led to antiproliferative effects in MDA-MB-231 cells cultured as 2D-adherent monolayers or as ultra-low adherent 3D-spheroid suspensions (Table 5).

TESK1 = TESK1 (Homo sapiens (Human), UniProt Q15569); assay: KINOMEscan; type: binding; conditions: TESK1, 10000 nM; read-out: Percent Control
AXL = AXL (Homo sapiens (Human), UniProt P30530); assay: KINOMEscan; type: binding; conditions: 10000 nM, read-out: Percent Control
FAK = FAK (Homo sapiens (Human), UniProt Q05397); assay: KINOMEscan; type: binding; conditions: 10000 nM, read-out: Percent Control
ABL1-nonphosphorylated = ABL1-nonphosphorylated (Homo sapiens (Human), UniProt P00519); assay: KINOMEscan; type: binding; conditions: 10000 nM, read-out: Percent Control
SNARK = SNARK (Homo sapiens (Human), UniProt Q9H093); assay: KINOMEscan; type: binding; conditions: 10000 nM, read-out: Percent Control
Sequence of SNARK (Q9H093 whole entry): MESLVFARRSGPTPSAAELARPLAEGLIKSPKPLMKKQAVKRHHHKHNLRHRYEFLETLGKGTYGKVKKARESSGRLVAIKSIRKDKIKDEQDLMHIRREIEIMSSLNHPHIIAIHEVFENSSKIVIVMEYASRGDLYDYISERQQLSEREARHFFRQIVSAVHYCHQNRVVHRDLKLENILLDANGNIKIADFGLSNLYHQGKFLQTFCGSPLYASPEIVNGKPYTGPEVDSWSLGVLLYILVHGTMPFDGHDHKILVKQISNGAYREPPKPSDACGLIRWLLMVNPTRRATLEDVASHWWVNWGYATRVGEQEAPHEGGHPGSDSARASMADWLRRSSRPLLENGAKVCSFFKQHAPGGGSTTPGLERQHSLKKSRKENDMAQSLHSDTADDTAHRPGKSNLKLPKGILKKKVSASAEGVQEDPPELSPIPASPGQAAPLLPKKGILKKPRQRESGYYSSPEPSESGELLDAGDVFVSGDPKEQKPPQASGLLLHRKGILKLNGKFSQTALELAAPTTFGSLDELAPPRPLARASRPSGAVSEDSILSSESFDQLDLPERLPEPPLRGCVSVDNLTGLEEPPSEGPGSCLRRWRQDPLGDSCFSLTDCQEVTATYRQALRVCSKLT

YANK1 = YANK1 (Homo sapiens (Human), UniProt Q8WU08); assay: KINOMEscan; type: binding; conditions: YANK1, 10000 nM; read-out: Percent Control
[1] = molecular target: ABL1(H396P)-nonphosphorylated (Homo sapiens (Human), UniProt P00519, H396P); assay: KINOMEscan; type: binding; conditions: 10000 nM, read-out: Percent Control
MAP3K2 = MAP3K2 (Homo sapiens (Human), UniProt Q9Y2U5); assay: KINOMEscan; type: binding; conditions: MAP3K2, 10000 nM; read-out: Percent Control
Sequence of MAP3K2 (Q9Y2U5 whole entry): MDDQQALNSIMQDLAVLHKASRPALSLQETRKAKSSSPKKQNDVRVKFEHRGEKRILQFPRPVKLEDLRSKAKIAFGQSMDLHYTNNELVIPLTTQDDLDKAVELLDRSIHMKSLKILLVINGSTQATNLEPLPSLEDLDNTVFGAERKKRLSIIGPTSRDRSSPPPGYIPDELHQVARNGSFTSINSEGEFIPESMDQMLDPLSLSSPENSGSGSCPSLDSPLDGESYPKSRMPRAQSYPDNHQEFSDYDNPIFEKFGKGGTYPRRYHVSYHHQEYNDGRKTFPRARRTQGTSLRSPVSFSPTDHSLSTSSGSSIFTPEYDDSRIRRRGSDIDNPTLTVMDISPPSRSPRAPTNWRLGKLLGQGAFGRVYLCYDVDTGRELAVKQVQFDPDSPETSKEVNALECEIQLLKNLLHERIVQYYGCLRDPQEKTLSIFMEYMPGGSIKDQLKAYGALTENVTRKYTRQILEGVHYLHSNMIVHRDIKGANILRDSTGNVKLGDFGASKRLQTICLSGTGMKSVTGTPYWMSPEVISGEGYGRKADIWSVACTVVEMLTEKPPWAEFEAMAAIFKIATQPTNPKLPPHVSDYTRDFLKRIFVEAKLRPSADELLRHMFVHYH

GAK = GAK (Homo sapiens (Human), UniProt O14976); assay: KINOMEscan; type: binding; conditions: 10000 nM, read-out: Percent Control
CDK4-cyclinD1 = CDK4-cyclinD1 (Homo sapiens (Human), UniProt P11802); assay: KINOMEscan; type: binding; conditions: CDK4-cyclinD1, 10000 nM; read-out: Percent Control
Sequence of CDK4-cyclinD1 (P11802 whole entry): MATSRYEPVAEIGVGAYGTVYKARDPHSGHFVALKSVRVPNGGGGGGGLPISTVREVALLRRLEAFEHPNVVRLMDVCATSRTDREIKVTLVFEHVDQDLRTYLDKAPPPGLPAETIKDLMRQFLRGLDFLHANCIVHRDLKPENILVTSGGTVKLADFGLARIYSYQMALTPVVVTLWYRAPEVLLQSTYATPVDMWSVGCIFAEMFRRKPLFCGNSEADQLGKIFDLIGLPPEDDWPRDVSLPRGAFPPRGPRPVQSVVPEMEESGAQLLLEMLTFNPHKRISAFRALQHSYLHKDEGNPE
Sequence of CDK4-cyclinD1 (P24385 whole entry partner): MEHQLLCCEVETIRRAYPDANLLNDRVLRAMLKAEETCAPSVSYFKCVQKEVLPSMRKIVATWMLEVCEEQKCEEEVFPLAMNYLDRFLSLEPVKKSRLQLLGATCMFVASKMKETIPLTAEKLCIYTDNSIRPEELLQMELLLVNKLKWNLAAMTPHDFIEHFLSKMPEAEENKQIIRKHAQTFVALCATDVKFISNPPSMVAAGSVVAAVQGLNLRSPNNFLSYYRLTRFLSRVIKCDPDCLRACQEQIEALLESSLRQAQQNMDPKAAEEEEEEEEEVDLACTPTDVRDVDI

NIM1 = NIM1 (Homo sapiens (Human), UniProt Q8IY84); assay: KINOMEscan; type: binding; conditions: NIM1, 10000 nM; read-out: Percent Control
KIT(V559D, T670I) = KIT(V559D, T670I) (Homo sapiens (Human), UniProt P10721, T670I/V559D); assay: KINOMEscan; type: binding; conditions: 10000 nM, read-out: Percent Control
Sequence of KIT(V559D, T670I) (P10721 26-976 V559D/T670I): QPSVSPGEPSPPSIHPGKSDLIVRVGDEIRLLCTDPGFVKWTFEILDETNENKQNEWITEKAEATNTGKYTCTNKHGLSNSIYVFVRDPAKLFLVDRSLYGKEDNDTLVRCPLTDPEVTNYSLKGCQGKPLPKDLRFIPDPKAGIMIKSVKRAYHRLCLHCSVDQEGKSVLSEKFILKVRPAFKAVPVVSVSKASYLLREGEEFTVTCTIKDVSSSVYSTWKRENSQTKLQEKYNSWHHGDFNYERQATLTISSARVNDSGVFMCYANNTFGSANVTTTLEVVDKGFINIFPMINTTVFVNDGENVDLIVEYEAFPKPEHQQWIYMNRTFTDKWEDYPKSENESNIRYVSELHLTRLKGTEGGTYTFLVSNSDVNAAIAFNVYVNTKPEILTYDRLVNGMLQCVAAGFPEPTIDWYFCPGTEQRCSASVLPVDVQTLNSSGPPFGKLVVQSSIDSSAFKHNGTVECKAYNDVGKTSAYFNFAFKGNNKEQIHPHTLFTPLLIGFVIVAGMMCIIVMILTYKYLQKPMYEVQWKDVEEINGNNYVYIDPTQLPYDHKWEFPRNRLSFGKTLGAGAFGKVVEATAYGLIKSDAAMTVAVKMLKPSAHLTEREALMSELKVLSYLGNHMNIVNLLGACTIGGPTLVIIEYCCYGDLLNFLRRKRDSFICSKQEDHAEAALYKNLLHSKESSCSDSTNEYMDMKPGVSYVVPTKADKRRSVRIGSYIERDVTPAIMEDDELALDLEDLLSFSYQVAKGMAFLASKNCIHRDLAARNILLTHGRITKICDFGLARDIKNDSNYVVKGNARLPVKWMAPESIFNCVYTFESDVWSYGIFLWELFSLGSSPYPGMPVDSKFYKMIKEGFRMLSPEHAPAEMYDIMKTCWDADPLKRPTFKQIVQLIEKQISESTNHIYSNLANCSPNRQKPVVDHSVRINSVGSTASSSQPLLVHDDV

[2] = molecular target: ABL1(Q252H)-nonphosphorylated (Homo sapiens (Human), UniProt P00519, Q252H); assay: KINOMEscan; type: binding; conditions: 10000 nM, read-out: Percent Control
PKN2 = PKN2 (Homo sapiens (Human), UniProt Q16513); assay: KINOMEscan; type: binding; conditions: PKN2, 10000 nM; read-out: Percent Control
MAP4K4 = MAP4K4 (Homo sapiens (Human), UniProt O95819); assay: KINOMEscan; type: binding; conditions: MAP4K4, 10000 nM; read-out: Percent Control
PCTK1 = PCTK1 (Homo sapiens (Human), UniProt Q00536); assay: KINOMEscan; type: binding; conditions: PCTK1, 10000 nM; read-out: Percent Control
RIPK5 = RIPK5 (Homo sapiens (Human), UniProt Q6XUX3); assay: KINOMEscan; type: binding; conditions: RIPK5, 10000 nM; read-out: Percent Control
Sequence of RIPK5 (Q6XUX3 whole entry): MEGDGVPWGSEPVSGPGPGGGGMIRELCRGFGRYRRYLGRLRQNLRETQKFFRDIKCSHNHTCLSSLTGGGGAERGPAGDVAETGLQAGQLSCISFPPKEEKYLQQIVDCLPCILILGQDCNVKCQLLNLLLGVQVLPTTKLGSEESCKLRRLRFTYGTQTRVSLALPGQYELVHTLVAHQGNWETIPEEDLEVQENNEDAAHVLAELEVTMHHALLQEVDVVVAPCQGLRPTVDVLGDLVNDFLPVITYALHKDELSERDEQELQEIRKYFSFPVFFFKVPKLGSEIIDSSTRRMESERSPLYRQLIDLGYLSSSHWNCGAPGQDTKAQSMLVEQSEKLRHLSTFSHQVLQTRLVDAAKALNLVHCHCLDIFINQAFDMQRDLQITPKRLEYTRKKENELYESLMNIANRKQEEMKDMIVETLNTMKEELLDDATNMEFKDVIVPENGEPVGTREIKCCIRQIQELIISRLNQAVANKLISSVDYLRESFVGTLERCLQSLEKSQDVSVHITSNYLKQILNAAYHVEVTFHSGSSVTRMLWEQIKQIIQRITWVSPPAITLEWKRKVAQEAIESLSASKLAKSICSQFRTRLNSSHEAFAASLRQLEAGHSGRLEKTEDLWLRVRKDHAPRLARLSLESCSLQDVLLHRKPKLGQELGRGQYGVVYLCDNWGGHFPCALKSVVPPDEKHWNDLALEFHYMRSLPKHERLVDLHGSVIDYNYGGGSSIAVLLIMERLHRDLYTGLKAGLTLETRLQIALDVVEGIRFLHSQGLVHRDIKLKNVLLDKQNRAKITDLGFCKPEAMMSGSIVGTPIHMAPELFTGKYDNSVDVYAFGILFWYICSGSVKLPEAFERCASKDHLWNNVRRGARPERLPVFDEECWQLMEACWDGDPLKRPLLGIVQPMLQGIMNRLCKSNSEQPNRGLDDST

TRKA = TRKA (Homo sapiens (Human), UniProt P04629); assay: KINOMEscan; type: binding; conditions: 10000 nM, read-out: Percent Control
MEK6 = MEK6 (Homo sapiens (Human), UniProt P52564); assay: KINOMEscan; type: binding; conditions: MEK6, 10000 nM; read-out: Percent Control
GCN2(Kin.Dom.2, S808G) = GCN2(Kin.Dom.2, S808G) (Homo sapiens (Human), UniProt Q9P2K8, S808G); assay: KINOMEscan; type: binding; conditions: 10000 nM, read-out: Percent Control
[3] = molecular target: JAK3(JH1domain-catalytic) (Homo sapiens (Human), UniProt P52333); assay: KINOMEscan; type: binding; conditions: 10000 nM, read-out: Percent Control
ABL1-phosphorylated = ABL1-phosphorylated (Homo sapiens (Human), UniProt P00519); assay: KINOMEscan; type: binding; conditions: 10000 nM, read-out: Percent Control
TLK2 = TLK2 (Homo sapiens (Human), UniProt Q86UE8); assay: KINOMEscan; type: binding; conditions: TLK2, 10000 nM; read-out: Percent Control
DDR2 = DDR2 (Homo sapiens (Human), UniProt Q16832); assay: KINOMEscan; type: binding; conditions: DDR2, 10000 nM; read-out: Percent Control
CLK1 = CLK1 (Homo sapiens (Human), UniProt P49759); assay: KINOMEscan; type: binding; conditions: CLK1, 10000 nM; read-out: Percent Control
EGFR(E746-A750del) = EGFR(E746-A750del) (Homo sapiens (Human), UniProt P00533, DEL746-750); assay: KINOMEscan; type: binding; conditions: 10000 nM, read-out: Percent Control
Sequence of EGFR(E746-A750del) (P00533 other isoform, or with tags, fused parts or gaps, stated change not applied): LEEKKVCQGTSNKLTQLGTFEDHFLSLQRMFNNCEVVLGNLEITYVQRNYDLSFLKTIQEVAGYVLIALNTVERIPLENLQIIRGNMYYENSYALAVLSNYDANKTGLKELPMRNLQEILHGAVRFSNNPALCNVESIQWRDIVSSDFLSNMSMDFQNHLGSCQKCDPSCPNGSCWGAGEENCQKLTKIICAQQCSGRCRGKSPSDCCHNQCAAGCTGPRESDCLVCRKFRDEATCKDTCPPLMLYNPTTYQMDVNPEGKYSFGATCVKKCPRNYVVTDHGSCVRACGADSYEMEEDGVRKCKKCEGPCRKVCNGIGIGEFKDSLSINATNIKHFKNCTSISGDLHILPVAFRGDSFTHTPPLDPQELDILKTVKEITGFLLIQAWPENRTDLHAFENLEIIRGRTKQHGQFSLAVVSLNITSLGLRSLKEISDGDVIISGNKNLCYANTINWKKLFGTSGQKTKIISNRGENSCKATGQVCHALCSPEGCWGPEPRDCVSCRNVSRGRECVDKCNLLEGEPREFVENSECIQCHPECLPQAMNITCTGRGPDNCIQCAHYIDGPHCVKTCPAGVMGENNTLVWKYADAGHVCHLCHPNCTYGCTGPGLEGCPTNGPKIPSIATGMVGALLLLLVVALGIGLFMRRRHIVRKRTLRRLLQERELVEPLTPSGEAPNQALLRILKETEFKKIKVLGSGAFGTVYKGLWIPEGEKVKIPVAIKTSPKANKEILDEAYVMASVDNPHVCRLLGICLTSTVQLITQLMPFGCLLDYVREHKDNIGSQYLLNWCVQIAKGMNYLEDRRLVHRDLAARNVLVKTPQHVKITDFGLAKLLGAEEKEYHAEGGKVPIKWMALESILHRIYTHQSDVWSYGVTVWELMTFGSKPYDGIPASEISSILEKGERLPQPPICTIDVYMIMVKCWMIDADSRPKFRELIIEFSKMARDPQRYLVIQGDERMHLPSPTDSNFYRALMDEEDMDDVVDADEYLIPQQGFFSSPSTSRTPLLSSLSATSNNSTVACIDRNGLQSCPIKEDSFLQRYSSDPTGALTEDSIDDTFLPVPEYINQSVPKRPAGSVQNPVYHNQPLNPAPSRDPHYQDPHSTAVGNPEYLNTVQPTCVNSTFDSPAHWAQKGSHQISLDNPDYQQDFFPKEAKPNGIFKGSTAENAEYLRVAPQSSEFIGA

DRAK1 = DRAK1 (Homo sapiens (Human), UniProt Q9UEE5); assay: KINOMEscan; type: binding; conditions: DRAK1, 10000 nM; read-out: Percent Control
AURKA = AURKA (Homo sapiens (Human), UniProt O14965); assay: KINOMEscan; type: binding; conditions: 10000 nM, read-out: Percent Control

Work on `COc1cc(N2CCC(N3CCN(C)CC3)CC2)ccc1Nc1ncc2c(n1)N(C)c1sc(C)nc1C(=O)N2` [Compound 3, 6-((2-methoxy-4-(4-(4-methylpiperazin-1-yl)piperidin-1-yl)phenyl)amino)-2,4-dimethyl-4,9-dihydro-10H-pyrimido[5,4-b]thiazolo[5,4-e][1,4]diazepin-10-one] yielded a remaining binding at 10 µM (ABL2) of 69%, a remaining binding at 10 µM (GSK3B) of 95% and a remaining binding at 10 µM (ACVR2B) of 92%. The IC50 (MDA-MB-231 cells) was greater than 10 µM, the remaining binding at 10 µM (TESK1) was 81% and the remaining binding at 10 µM (AXL) was 100%. It also gave a remaining binding at 10 µM (FAK) of 0.55%, a remaining binding at 10 µM (ABL1-nonphosphorylated) of 25% and a remaining binding at 10 µM (SNARK) of 100%. The remaining binding at 10 µM (YANK1) was 77%, the remaining binding at 10 µM [1] was 4.3% and the remaining binding at 10 µM (MAP3K2) was 100%. It also gave a remaining binding at 10 µM (GAK) of 4.2%, a remaining binding at 10 µM (CDK4-cyclinD1) of 100% and a remaining binding at 10 µM (NIM1) of 100%. For the same molecule, the remaining binding at 10 µM (KIT(V559D, T670I)) was 86%, the remaining binding at 10 µM [2] was 7.8% and the remaining binding at 10 µM (PKN2) was 100%. The remaining binding at 10 µM (MAP4K4) was 79%, the remaining binding at 10 µM (PCTK1) was 100% and the remaining binding at 10 µM (RIPK5) was 100%. The remaining binding at 10 µM (TRKA) was 100%, the remaining binding at 10 µM (MEK6) was 100% and the remaining binding at 10 µM (GCN2(Kin.Dom.2, S808G)) was 88%. It also gave a remaining binding at 10 µM [3] of 83%, a remaining binding at 10 µM (ABL1-phosphorylated) of 17% and a remaining binding at 10 µM (TLK2) of 100%. The remaining binding at 10 µM (DDR2) was 100%, the remaining binding at 10 µM (CLK1) was 90% and the remaining binding at 10 µM (EGFR(E746-A750del)) was 67%. It also gave a remaining binding at 10 µM (DRAK1) of 95% and a remaining binding at 10 µM (AURKA) of 92%.
Work on `COc1cc(N2CCC(N3CCN(C)CC3)CC2)ccc1Nc1ncc2c(n1)N(C)c1sc(C)nc1C(=O)N2C` [Compound 5, 6-((2-methoxy-4-(4-(4-methylpiperazin-1-yl)piperidin-1-yl)phenyl)amino)-2,4,9-trimethyl-4,9-dihydro-10H-pyrimido[5,4-b]thiazolo[5,4-e][1,4]diazepin-10-one] yielded a remaining binding at 10 µM (ABL2) of 95%, a remaining binding at 10 µM (GSK3B) of 99% and a remaining binding at 10 µM (ACVR2B) of 100%. The IC50 (MDA-MB-231 cells) was 7.6 µM, the remaining binding at 10 µM (TESK1) was 100% and the remaining binding at 10 µM (AXL) was 97%. For the same molecule, the remaining binding at 10 µM (FAK) was 0.1%, the remaining binding at 10 µM (ABL1-nonphosphorylated) was 77% and the remaining binding at 10 µM (SNARK) was 91%. For the same molecule, the remaining binding at 10 µM (YANK1) was 100%, the remaining binding at 10 µM [1] was 100% and the remaining binding at 10 µM (MAP3K2) was 100%. For the same molecule, the remaining binding at 10 µM (GAK) was 31%, the remaining binding at 10 µM (CDK4-cyclinD1) was 90% and the remaining binding at 10 µM (NIM1) was 100%. The remaining binding at 10 µM (KIT(V559D, T670I)) was 95%, the remaining binding at 10 µM [2] was 93% and the remaining binding at 10 µM (PKN2) was 100%. For the same molecule, the remaining binding at 10 µM (MAP4K4) was 100%, the remaining binding at 10 µM (PCTK1) was 100% and the remaining binding at 10 µM (RIPK5) was 60%. The remaining binding at 10 µM (TRKA) was 100%, the remaining binding at 10 µM (MEK6) was 98% and the remaining binding at 10 µM (GCN2(Kin.Dom.2, S808G)) was 94%. For the same molecule, the remaining binding at 10 µM [3] was 100%, the remaining binding at 10 µM (ABL1-phosphorylated) was 79% and the remaining binding at 10 µM (TLK2) was 100%. The remaining binding at 10 µM (DDR2) was 100%, the remaining binding at 10 µM (CLK1) was 100% and the remaining binding at 10 µM (EGFR(E746-A750del)) was 79%. It also gave a remaining binding at 10 µM (DRAK1) of 100% and a remaining binding at 10 µM (AURKA) of 78%.
